Tests used:
Assay in all cases: Example B2 herbicidal action, post-emergence, pots in glasshouse, evaluated after 13 days (10=total damage to plant; 0=no damage to plant)
Type in all cases: in vivo
[1] = tested on: Amaranthus retroflexus
Method: (§1) Seeds of a variety of test species were sown in standard soil in pots. After 8 days cultivation (post-emergence) under controlled conditions in a glasshouse (at 24/16° C., day/night; 14 hours light; 65% humidity), the plants were sprayed with an aqueous spray solution derived from the formulation of the technical active ingredient in acetone/water (50:50) solution containing 0.5% Tween 20 (polyoxyethelyene sorbitan monolaurate, CAS RN 9005-64-5). The test plants were then grown in a glasshouse under controlled conditions in a glasshouse (at 24/16° C., day/night; 14 hours light; 65% humidity) and watered twice daily. After 13 days, the test was evaluated (10=total damage to plant; 0=no damage to plant).

[2] = tested on: Echinochloa crus-galli
Method: as §1

[3] = tested on: Ipomea hederaceae
Method: as §1

[4] = tested on: Setaria faberi
Method: as §1

[5] = tested on: Solanum nigrum
Method: as §1

Structure (SMILES) | AMARE damage score (10=total damage to plant; 0=no damage to plant) ([1]; rate 1000 g/ha) | ECHCG damage score (10=total damage to plant; 0=no damage to plant) ([2]; rate 1000 g/ha) | IPOHE damage score (10=total damage to plant; 0=no damage to plant) ([3]; rate 1000 g/ha) | SETFA damage score (10=total damage to plant; 0=no damage to plant) ([4]; rate 1000 g/ha) | SOLNI damage score (10=total damage to plant; 0=no damage to plant) ([5]; rate 1000 g/ha) | AMARE damage score (10=total damage to plant; 0=no damage to plant) ([1]; rate 250 g/ha) | ECHCG damage score (10=total damage to plant; 0=no damage to plant) ([2]; rate 250 g/ha) | IPOHE damage score (10=total damage to plant; 0=no damage to plant) ([3]; rate 250 g/ha) | SETFA damage score (10=total damage to plant; 0=no damage to plant) ([4]; rate 250 g/ha) | SOLNI damage score (10=total damage to plant; 0=no damage to plant) ([5]; rate 250 g/ha)
CC(C)C(=O)Oc1c(-c2c(Cl)cccc2C(F)(F)F)c(=O)n(CC(F)F)c2nccnc12 [A41] | 10 | 8 | 9 | 9 | 10 |  |  |  |  | 
CC(C)(C)C(=O)Oc1c(-c2cc(Cl)ccc2Cl)c(=O)n(CC(F)F)c2nccnc12 [A42] | 10 | 6 | 9 | 7 | 10 |  |  |  |  | 
CC(C)(C)C(=O)Oc1c(-c2cc(C(F)(F)F)ccc2C(F)(F)F)c(=O)n(CC(F)F)c2nccnc12 [A43] | 10 | 8 | 9 | 9 | 9 |  |  |  |  | 
COc1cc(F)c(F)cc1-c1c(OC(=O)C(C)(C)C)c2nccnc2n(CC(F)F)c1=O [A44] | 9 | 7 | 6 | 9 | 10 |  |  |  |  | 
CCc1ccccc1-c1c(OC(=O)C(C)C)c2nccnc2n(CC(F)F)c1=O [A45] | 10 | 5 | 9 | 8 | 10 |  |  |  |  | 
O=c1c(-c2cc(C(F)(F)F)ccc2Cl)c(O)c2nccnc2n1CC(F)F [B3] |  |  |  |  |  | 10 | 7 | 8 | 7 | 9
CCc1cc(C)cc(CC)c1-c1c(O)c2nccnc2n(CC(F)F)c1=O [B4] | 7 | 8 | 10 | 9 | 10 |  |  |  |  | 
Cc1cc(C)c(-c2c(O)c3nccnc3n(CC(F)F)c2=O)c(C)c1 [B5] | 7 | 8 | 10 | 8 | 10 |  |  |  |  | 
O=c1c(-c2c(F)ccc(Br)c2Cl)c(O)c2nccnc2n1CC(F)F [B6] | 10 | 8 | 10 | 8 | 10 |  |  |  |  | 
O=c1c(-c2cc(F)ccc2Cl)c(O)c2nccnc2n1CC(F)F [B7] | 10 | 7 | 9 | 7 | 9 |  |  |  |  | 
COc1ccc(OC(F)(F)F)cc1-c1c(O)c2nccnc2n(CC(F)F)c1=O [B8] | 10 | 9 | 9 | 9 | 9 |  |  |  |  | 
O=c1c(-c2c(F)ccc([N+](=O)[O-])c2Cl)c(O)c2nccnc2n1CC(F)F [B9] | 9 | 8 | 8 | 7 | 9 |  |  |  |  | 
O=c1c(-c2cc(Cl)ccc2C(F)(F)F)c(O)c2nccnc2n1CC(F)F [B10] | 10 | 9 | 10 | 9 | 10 |  |  |  |  | 
O=c1c(-c2c(Cl)ccc(Cl)c2Cl)c(O)c2nccnc2n1CC(F)F [B11, 5-(2,2-difluoro-ethyl)-8-hydroxy-7-(2,3,6-trichloro-phenyl)-5H-pyrido[2,3-b]pyrazin-6-one] | 10 | 8 | 10 | 9 | 10 |  |  |  |  | 
COc1ccc(Br)cc1-c1c(O)c2nccnc2n(CC(F)F)c1=O [B12] | 9 | 6 | 6 | 6 | 9 |  |  |  |  | 
O=c1c(-c2c(Cl)cccc2C(F)(F)F)c(O)c2nccnc2n1CC(F)F [B13] | 10 | 9 | 10 | 9 | 10 |  |  |  |  | 
O=c1c(-c2c(F)ccc(Cl)c2Cl)c(O)c2nccnc2n1CC(F)F [B14] | 10 | 6 | 10 | 7 | 10 |  |  |  |  | 
CC(C)(C)C(=O)Oc1c(-c2c(F)ccc(F)c2Cl)c(=O)n(CC(F)(F)F)c2nccnc12 [C8, 2,2-dimethyl-propionic acid 7-(2-chloro-3,6-difluoro-phenyl)-5-(2,2,2-trifluoro-ethyl)-6-oxo-5,6-dihydro-pyrido[2,3-b]pyrazin-8-yl ester] | 10 | 1 | 10 | 4 | 10 |  |  |  |  | 
CC(C)(C)C(=O)Oc1c(-c2c(F)ccc(F)c2Cl)c(=O)n(CCF)c2nccnc12 [C9, 2,2-dimethyl-propionic acid 7-(2-chloro-3,6-difluoro-phenyl)-5-(2-fluoro-ethyl)-6-oxo-5,6-dihydro-pyrido[2,3-b]pyrazin-8-yl ester] | 7 | 0 | 5 | 0 | 4 |  |  |  |  | 

Reference: patent US8217055B2, “Pyrido-pyrazine derivatives useful as herbicidal compounds” (Syngenta Crop Protection LLC, priority 2006, dated 2012)
